pIC50: −log10 of the molar value. Active and inactive are the calls of the source. No rule for the calls is given here.
Tested on: SW480 viability, CellTiter-Glo luminescence
Assay: 50% inhibitory concentration in SW480 colon cancer line, survival by CellTiter-Glo luminescence, dose-dependent response (AID 1117338)

| SMILES | pIC50 | IC50 |
| --- | --- | --- |
| CCCCCCCCCCCCCC[N+](C)(C)C | 6.03 | – |
| CC(=O)[O][Hg][c]1ccccc1 | 6.27 | – |
| O=Cc1ccc(O)c(O)c1O | – | 11300 nM (inactive) |
| Cn1cnc([N+](=O)[O-])c1Sc1ncnc2nc[nH]c12 | – | 9440 nM (inactive) |
| Cc1ccc([N+](=O)[O-])[c]2c1[O][Hg]2 | 5.95 | – |
| O=C(O)C1(C(=O)O)CCC1.[NH2-].[NH2-].[Pt+2] | – | > 20000 nM (inactive) |
| O=C1[O][Bi][O]c2ccccc21 | – | > 20000 nM (inactive) |
| OCCN1CCN(CC/C=C2/c3ccccc3Sc3ccc(C(F)(F)F)cc32)CC1 | 5.41 | – |
